Test results from patent US12551429B2, “Oral care complexes and compositions” (Colgate-Palmolive Company, priority 2021, dated 2026).

Key:
[1] = Knoop hardness repair (% HR) of acid-etched human enamel after treatment and remineralization
Experimental: KHN is determined using the Knoop microhardness tester. A baseline measurement is taken on a sound enamel sample without treatment (KHN0), on an acid-etched enamel sample (KHNe), and on an acid-etched enamel sample after treatment (KHNt). Each KHN measurement is the average of 5 indentations made on the same specimen at a force of 0.05 kg for 15 seconds. A value for Percentage of Hardness Repair (% HR) is calculated according to the following formula: % HR=(KHNt−KHNe)/(KHN0−KHNe)×100
Etched enamel samples are prepared by treatment with 1% aqueous citric acid (pH 3.6) for 10 minutes, followed by rinsing with deionized water. […]

[2] = Surface roughness change (% R) of etched human enamel, 3D laser scanning confocal microscope; conditions: Example 2, % R=(Rt−Re)/(Re)×100, four days of treatment, negative = smoother
Description: Human molar teeth are obtained, and the root portion of the molar is removed. The crown of the molar is cut longitudinally into slices 2 mm thick using a water-cooled low-speed diamond saw. The human enamel samples are then mounted in acrylic resin. The embedded samples are grinded and polished with a sequential series of wet 400 to 4000 grit silicon carbide papers and nylon adhesive backed discs with 0.25 micron diamond or colloidal silica coating. The polished slices are rinsed thoroughly with distilled water three times, sonicated in a water bath for five minutes, then rinsed again and allowed to air dry.
(§1) Etched enamel samples are prepared by treatment with 1% aqueous citric acid (pH 3.6) for 10 minutes, followed by rinsing with deionized water.
Etched human enamel samples are treated with 50 microliters of polyelectrolyte solutions A-F, or with control solutions, for ten minutes at room temperature. […]
In addition, surface roughness and morphology are evaluated using a 3D laser scanning confocal microscope. […] Roughness is therefore measured in units of micrometers. Values for roughness of the acid etched enamel sample (Re) and for the acid-etched enamel sample after treatment (Rt) are determined. Percentage of roughness (% R) is calculated as follows: % R=(Rt−Re)/(Re)×100

[3] = Gloss recovery (% GR) of acid-etched enamel, Novo-Curve glossmeter; set-up: species or system bovine; conditions: Example 5
Experimental: Enamel repair is also evaluated using the method described in Example 4. A Keyence microscope is used to capture the surface morphology and to measure the step height of the treated samples. A Phenom ProX Desktop scanning electron microscope is used to observe the repaired enamel crystals. Bovine enable blocks are treated with either water, the sodium fluoride solution, or the 10 mg/mL ePL+0.06 mg/mL malic acid solution (Solution E above).
The effect of treatments on enamel appearance is also investigated by measuring the surface gloss and observing the surface under a microscope. The gloss values are measured using a Novo-Curve glossmeter. A glossmeter provides a quantifiable way of measuring gloss intensity, and the measurement relates to the amount of reflected light from a black glass standard with a defined refractive index. The ratio of reflected light for a test specimen, compared to the ratio for the gloss standard, is recorded as gloss units (GU). A gloss measurement of >70 GU is considered high gloss, while medium gloss is 10-70 GU, and low gloss is <10 GU.
A baseline measurement is taken on a sound enamel sample without treatment (G0), on an acid-etched enamel sample (Ge), and on an acid-etched enamel sample after treatment (Gt). The percentage of gloss recovery (% GR) is calculated according to the following formula: % GR=(Gt−Ge)/(G0−Ge)×100.

[4] = Light microscopy of enamel surface morphology (sound/damaged/repaired method); conditions: Example 5; bovine enamel blocks
Experimental: (§2) The left half of the block (“sound”) is covered using an acid-resistant nail polish, which is then allowed to air dry. The right half of the block (“damaged” and “repaired”) is then treated with 1% citric acid (pH 3.6) for ten minutes to etch the surface. After the treatment, the surface of the block is rinsed with deionized water. The top right corner of the block (“damaged”) is then covered with the same acid-resistant nail polish and air dried. The test formulation is then applied to the bottom right corner of the block (“repaired”), for example, for a ten-minute treatment, followed by rinsing with deionized water. Following the treatment, the enamel blocks are immersed in a Remineralization Solution (0.2205 g/L CaCl2·2H2O, 0.1225 g/L KH2PO4, 9.6915 g/L KCl and 4.766 g/L HEPEs buffer, pH adjusted to 7 with NaOH) overnight at 37° C., and the process repeated for 2-4 days (the blocks immersed daily in fresh remineralization solution). Following this, the blocks are removed, rinsed with deionized water and air dried. The nail polish covers are then removed using acetone solvent, and the surface of the enamel blocks is visualized, for example, by light microscopy, confocal laser scanning microscopy, scanning probe microscopy, or scanning electron microscopy. […]
(§3) Enamel repair is also evaluated using the method described in Example 4. […]

[5] = Knoop hardness repair (% HR) of acid-etched bovine enamel after treatment and remineralization; conditions: for % HR (Percentage Hardness Repair): bovine enamel, 40 microliters
Experimental: Bovine enamel blocks are obtained from sound bovine incisors without defects. The labial surface of the bovine teeth is cut to provide enamel specimens of about 3×3×2 mm in size. The enamel layer is about 1 mm thick and the dentin left in the specimen is about 1 mm thick.
as §1
Etched bovine enamel samples are treated with 50 microliters of polyelectrolyte solutions A-F, or with sodium fluoride solution or water, for ten minutes at room temperature. The samples are then rinsed with deionized water and then they are immersed in 50 mL of Remineralization Solution (0.2205 g/L CaCl2·2H2O, 0.1225 g/L KH2PO4, 9.6915 g/L KCl and 4.766 g/L HEPEs buffer, pH adjusted to 7 with NaOH) overnight at 37° C. The enamel samples are then rinsed with deionized water for 50 seconds and then air dried.
Knoop Hardness (KHN) is a measure of hardness of a material calculated by measuring the indentation produced by a diamond tip that is pressed onto the surface of a sample. Using a calibrated microscope, the area of the impression can be determined, and from the area of the indentation (D) in […], and the applied load (F) in kilograms force, the Knoop Hardness is calculated as: KHN=14.229(F/D^2). Knoop hardness has units of kgf/mm^2.
KHN is determined using the Knoop microhardness tester. […] A value for Percentage of Hardness Repair (% HR) is calculated according to the following formula: % HR=(KHNt−KHNe)/(KHN0−KHNe)×100
Bovine and human enamel blocks are prepared and treated with polyelectrolyte test solutions as described in Examples 1 and 2, respectively, except that 40 microliters of the polyelectrolyte solution are applied to the etched enamel surface, instead of 50 microliters. Koop Hardness (KHN) and Percentage Hardness Repair (% HR) are determined as described in Examples 1 and 2. […]

[6] = Step height repair of etched bovine enamel blocks (sound/damaged/repaired method, Keyence microscope)
Experimental: as §2, §3

[7] = Scanning electron microscopy of enamel surface; conditions: Example 5; bovine enamel blocks
Experimental: as §2, §3

| Structure (SMILES) | % HR (Percentage of Hardness Repair) ([1]; Example 2, 50 microliters for ten minutes, overnight remineralization, repeated daily for four days) [%] | % R (Percentage of roughness) [2] [%] | % GR (percentage of gloss recovery) ([3]; 2 days of remineralization) [%] | surface gloss recovery, in words ([3]; after 2 days of remineralization) | surface morphology of the repaired side under the microscope (FIG. 2) [4] | % HR (Percentage of Hardness Repair) ([5]; Example 1, bovine enamel etched with 1% citric acid, 50 microliters for ten minutes, Remineralization Solution overnight at 37° C.) [%] | % HR (Percentage Hardness Repair) ([5]; Example 3, solutions pH 7.0) [%] | % HR (Percentage Hardness Repair) ([5]; Example 5, solutions about pH 6.0, 1 day of treatment) [%] | restoration of enamel height in 3-D Keyence photomicrographs (FIG. 3) ([6]; Example 5) | % Repair (Step height) ([6]; Example 5, calculated from change in step height) [%] | repair of gaps or cracks in the enamel surface by scanning electron microscopy [7] | % HR (Percentage Hardness Repair) ([1]; Example 3, 40 microliters, solutions pH 7.0, 4 days of treatments) [%] |
| --- | --- | --- | --- | --- | --- | --- | --- | --- | --- | --- | --- | --- |
| O=C(O)CC(O)C(=O)O (stereo not drawn) [Malic acid, malic acid] | 19.8 | −1.6 | – | – | – | – | – | – | – | – | – | – |
| [F-].[Na+] [NaF, sodium fluoride] | – | – | 12.7 | slightly better than water treatment | a clear interface between “damaged” and “repaired” sides is observed | 27.9 | 35.9 | 41.0 | do not restore the enamel to the original height | 65.3 | some healing | 49.3 |
